# Assay results taken from patent publication US7993921B2, “Cell cycle regulation and differentiation” (National Institutes of Health (NIH), priority 2007, dated 2011).
# Assays:
# [1] = test system: KLF9, Hr, DBP, BHLHB5; assay: Transcription factor induction by T3 in OPCs (Affymetrix Mouse Genomic 430 2.0 chips); assay type: cell-based
# Description: FIG. 57. KLF9, Hr, DBP, and BHLHB5 are induced in OPCs by T3. Transcription factor probe sets were induced >2-fold by T3 at early time points relative to untreated (+PDGF −T3) controls. OPCs were treated with T3 for either 1 day or 6 days in vitro with T3 (+PDGF +T3), or for only 3 hours with T3 following 1 day or 6 days in vitro in media lacking T3 (+PDGF −T3, then 3 hours +PDGF +T3). All samples were labeled and hybridized to Affymetrix Mouse Genomic 430 2.0 chips.
# In OPCs cultured in saturating amounts of mitogens and T3, a small number of transcription factors are rapidly and robustly regulated in response to T3 presentation (as compared to control cultures maintained in mitogens in the absence of T3). These four genes are 1) Kruppel-Like Factor 9 (KLF9), also known as Basic Transcription Element Binding protein 1(BTEB1), 2) basic helix-loop-helix domain containing, class B5 (BHLHB5), also known as Beta3, 3) Hairless, (Hr), or ALUNC, AU, N, ba, bldy, hr, rh, rh-bmh, rhino, and 4) D site albumin promoter binding protein (DBP). KLF9, Hr, and DBP are all induced (2-6 fold) rapidly in OPCs in response to T3, before the OPCs initiate differentiation in response to T3 presentation (FIG. 57).
# [2] = test system: OPCs from the cortex and cerebellum; assay: Differentiation of OPCs from the cortex and cerebellum in response to T3; assay type: cell-based, rat; settings: 7 days in vitro +PDGF +T3
# Description: OPCs were purified via immunopanning specifically from the cortices or cerebellums of P7 Sprague-Dawley rats. These cells were then plated onto glass coverslips in the presence or absence of mitogens PDGF and NT3 (±PDGF) and presence or absence of thyroid hormone (±T3) and cultured for 3 (−PDGF) or 7 (+PDGF ±T3) days in vitro, with fresh media being supplied every 2-3 days. At the end of this time, cultures were stained for either CNPase expression (less mature) or MBP expression (more mature) as markers of OL differentiation. Percentages of healthy cells (as assessed by healthy nuclei visualized by DAPI staining) expressing indicated markers were quantified for each condition. […] All experiments analyzed in triplicate, ±S.E.M.
# [3] = test system: p57^Kip2; assay: p57^Kip2 expression in OPCs (RT-PCR, immunostaining of clones); assay type: cell-based, rat
# From the text: p57^Kip2 was either over-expressed or reduced in levels in pure OPCs, and normal OL differentiation and OPC proliferation was observed. To test the necessity of p57^Kip2 in OL differentiation, knockdowns for p57^Kip2 were used to reduce p57^Kip2 levels in OPCs. p57^Kip2 levels were reduced by transfecting OPCs with siRNA directed against the p57^Kip2 transcript, and then cultured the transfected OPCs in media that stimulated OL differentiation. […] OPCs transfected with firefly luciferase- (cont) or p57^Kip2-targeting siRNA pools (Dharmacon) were cultured for 4 D.I.V. in −PDGF +T3 or +PDGF +T3 media and reduction in p57^Kip2 transcript levels by this method was confirmed by RT-PCR (27 cycles).
# OL differentiation can be triggered by either by mitogen withdrawal or by the intrinsic timer coupled with exposure to T3 (Barres and Raff, Neuron 12:935-942 (1994)). Whereas either of these conditions will produce mature OLs, the initial genetic programs triggered by these two stimuli are not identical (Tokumoto et al., EMBO J. 20:5261-5268 (2001)). To more precisely determine how p57^Kip2 expression is induced, purified P8 OPCs were subjected to either mitogen withdrawal, T3 exposure, or both differentiation-promoting stimuli simultaneously (FIG. 48I). […]
structure (smiles),measurement,setting,value
"N[C@@H](Cc1cc(I)c(Oc2ccc(O)c(I)c2)c(I)c1)C(=O)O [T3, triiodothyronine]","KLF9, Hr and DBP induction in OPCs in response to T3",[1]; +PDGF +T3 vs +PDGF −T3 controls,2-6 fold
same,"transcription factor probe sets (KLF9, Hr, DBP, BHLHB5) induced by T3",[1]; early time points relative to untreated (+PDGF −T3) controls,> 2 fold
same,KLF9 induction by T3 in OPCs,[1]; within 3 hours of T3 exposure,4 fold
same,"expression of mature OL proteins (CNPase, MBP) in cerebellar vs cortical OPCs in response to T3",[2],similarly
same,clones expressing uniformly high levels of p57^Kip2,"[3]; 7 days in +PDGF +T3 medium, clonal density",15 out of 23
same,p57^Kip2 expression by semi-quantitative RT-PCR,"[3]; T3 exposure, 6 DIV, purified P8 OPCs",did not induce
